From patent publication US10226451B2, “Substituted bicyclic compounds as bromodomain inhibitors” (ZENITH EPIGENETICS LTD, priority 2013, dated 2019)

Tested on: MV4-11 cells xenograft
Assay: In vivo efficacy, acute myeloid leukemia xenograft model using MV4-11 cells
Parameters: species or system mouse
Conditions: MV4-11 xenograft, nu/nu mice, oral dosing, tumor growth inhibition
Protocol: MV4-11 cells (ATCC) were grown under standard cell culture conditions and (NCr) nu/nu fisol strain of female mice age 6-7 weeks were injected with 5×10^6 cells/animal in 100 μL PBS+100 μL Matrigel in the lower left abdominal flank. By approximately day 18-21 after MV4-11 cells injection, mice were randomized based on tumor volume (L×W×H)/2) of average ˜100-300 mm^3. Mice were dosed orally with compound at 5 to 120 mg/kg b.i.d and/or q.d. on a continuous dosing schedule and at 2.5 to 85 mg/kg q.d. on a 5 day on 2 day off, 100 mg/kg q.d. on a 4 day on and 3 day off, 135 mg/kg q.d. on a 3 day on and 4 day off, 180 mg/kg on a 2 day on and 5 day off and 240 mg/kg on a 1 day on and 6 days off dosing schedules in EA006 formulation at 10 mL/kg body weight dose volume. Tumor measurements were taken with electronic micro calipers and body weights measured on alternate days beginning from dosing period. The average tumor volumes, percent Tumor Growth Inhibition (TGI) and % change in body weights were compared relative to Vehicle control animals. The means, statistical analysis and the comparison between groups were calculated using Student's t-test in Excel.

Cc1noc(C)c1-c1cc(-c2c(C)nn(C)c2C)c2c(c1)[nH]c(=O)n2C [Example Compound 9, 5-(3,5-dimethylisoxazol-4-yl)-1-methyl-7-(1,3,5-trimethyl-1H-pyrazol-4-yl)-1H-benzo[d]imidazol-2(3H)-one]
In vivo activity: Active
